EP4711366A1, “PYRIMIDO MACROHETEROCYCLIC COMPOUND AS WEE1-YES DUAL-TARGET INHIBITOR AND USE THEREOF” (Mindrank AI Ltd., priority 2023, dated 2024)
pIC50: −log10 of the molar value.

Assays:
[1] = molecular target: YES1 kinase (Homo sapiens, UniProt P07947); experiment: YES1 protein kinase inhibitory activity assay (HTRF); format: biochemical; conditions: for pIC50: HTRF, YES1 kinase, ATP 10 µM
Description: In this experiment, the capability of the compound MRANK-106 of the present disclosure to inhibit kinase activity was assessed by an HTRF method using a drug screening system based on the YES1 kinase.
Table 3-1. Information about reagents and consumables
The enzymatic activity conditions and HTRF system formulation are shown in Table 3-3; the experimental conditions for the kinase activity assay are shown in Table 3-4. Table 3-3. HTRF system formulation
Table 3-4. The experimental conditions for the kinase activity assay
The test compound MRANK-106 was dissolved in DMSO, and the solution was vortexed and shaken for thorough mixing. The solution was serially diluted 3-fold with DMSO, with the initial concentration being 503 nM.
① A 2× ATP/substrate solution and a 2× kinase solution were formulated using a kinase reaction buffer.
② 50 nL of the compound dilution was transferred to a 384 detection plate using Echo 655. After centrifugation, 2.5 µL of a 2× kinase solution was added to the 384 detection plate. The plate was centrifuged at 1000 rpm for 1 min and incubated at 25 °C for 10 min.
② 2.5 µL of the 2× substrate and ATP solution was added to the 384 detection plate, and the plate was centrifuged at 1000 rpm for 1 min and incubated at 25 °C for 60 min.
④ A 2× XL665 and antibody detection reagent was formulated using a detection buffer.
⑤ 5 µL of a kinase detection reagent was added to the detection plate, and the plate was incubated at 25 °C. The plate was centrifuged at 1000 rpm for 1 min and incubated at 25 °C for 1 h.
⑥ The fluorescence signals at 620 nm (Cryptate) and 665 nm (XL665) were read using a BMG high-throughput drug-screening multi-mode microplate reader.
With the reading of the negative control set as an inhibition rate of 0% and the reading of the positive control set as an inhibition rate of 100%, the inhibition rate of each test solution was calculated using the following formula: [formula] • Datapositive control: the average of the positive control well values • Datanegative control : the average of the negative control well values
The IC50 (half maximal inhibitory concentration) of the compound was obtained using the following nonlinear fitting formulas: Y = Bottom + (Top−Bottom)/(1+10^(∧)((LogIC50−X)*HillSlope)) [formula] • X: the log value of the compound concentration • Y: the inhibition rate (% inh) of the compound
The Z' factor calculation equation: Z′ = 1−3(SDmin+SDmax)/(AVEmax−AVEmin) [formula] where: • Min is the positive control Data value, and Max is the negative control DMSO Data value; • SD stands for standard deviation, and AVE stands for average.

[2] = test system: SW620 human colon cancer cells; experiment: In vivo efficacy study against SW620 tumors (subcutaneous tumor-bearing model); design: species or system BALB/c nude mice; conditions: for Relative tumor inhibition rate (%) Day 21 / Relative tumor volume Day 21: PO, QD×21
From the text: (§1) SW620 human colon cancer cells were subcultured and expanded in an L-15 culture medium containing 10% FBS. BALB/c nude mice aged 6-8 weeks were taken and each subcutaneously injected with 1 × 10^6 cells to establish a tumor-bearing model. The tumor volume was monitored, and when the tumor volume reached about 150 mm^3, the animals were randomized into 5 groups according to body weight and tumor volume. The animals were given, by oral gavage, the vehicle or compounds to be tested (ZN-c3 and compound IE) once daily for a total of 21 days. During the period of administration, the tumor volume and the animal body weight were measured twice a week, and the animals' states were observed daily. At the endpoint, the animals were euthanized with carbon dioxide, and the subcutaneous tumors were isolated and weighed.
(§2) The data calculation formulae are shown below: The tumor volume (TV) was calculated using the formula 1/2×axb^2, where a and b represent the length and width measurements of the tumor, respectively.
The tumor growth inhibition rate (%TGITV) was calculated using the formula (1 - TVT/TVC) × 100%, where TVc represents the average tumor volume of the negative control group, and TVT represents the average tumor volume of the treatment group.
(§3) The relative tumor volume (RTV) was calculated using the formula Vt/V0, where V0 represents the tumor volume at the time of grouping, and Vt represents the tumor volume at each measurement.

[3] = test system: Human colon cancer LoVo cells; experiment: In vivo efficacy study against LoVo tumors (subcutaneous tumor-bearing model); design: species or system BALB/c nude mice; conditions: for Relative tumor inhibition (%) Day 28 / Relative tumor volume Day 28: PO
From the text: as §1, with “Human colon” for “SW620 human colon”, “cancer LoVo” for “cancer”, “an F12K” for “an L-15”, “with 2” for “with 1”, “and” for “and compound”, “of 28” for “of 21”
as §2
The tumor growth inhibition rate (%TGITV) was calculated using the formula (1 - TVT/TVC) × 100%, where TVC represents the average tumor volume of the negative control group, and TVT represents the average tumor volume of the treatment group.
as §3

Chain of YES1 kinase (P07947 whole entry): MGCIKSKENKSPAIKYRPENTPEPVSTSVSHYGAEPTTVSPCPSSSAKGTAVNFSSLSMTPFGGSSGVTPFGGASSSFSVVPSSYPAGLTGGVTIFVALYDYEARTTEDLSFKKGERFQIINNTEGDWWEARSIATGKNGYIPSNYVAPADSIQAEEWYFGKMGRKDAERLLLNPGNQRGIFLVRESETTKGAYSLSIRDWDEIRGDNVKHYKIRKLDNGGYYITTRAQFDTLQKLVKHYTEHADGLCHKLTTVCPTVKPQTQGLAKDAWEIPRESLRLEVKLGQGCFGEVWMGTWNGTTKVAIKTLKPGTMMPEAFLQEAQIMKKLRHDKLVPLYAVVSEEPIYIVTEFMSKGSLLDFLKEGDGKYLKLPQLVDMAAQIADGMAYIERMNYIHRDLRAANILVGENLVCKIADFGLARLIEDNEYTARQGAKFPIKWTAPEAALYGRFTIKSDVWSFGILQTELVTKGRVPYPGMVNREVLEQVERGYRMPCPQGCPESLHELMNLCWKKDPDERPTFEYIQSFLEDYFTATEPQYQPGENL

| inhibition of the Yes target (in words) ([1]; summary statement on the assay results) | Structure (SMILES) | pIC50 [1] | Relative tumor inhibition rate (%) Day 21 ([2]; 30mg/kg) [%] | Relative tumor volume Day 21 ([2]; 30mg/kg) | Relative tumor inhibition rate (%) Day 21 ([2]; 80mg/kg) [%] | Relative tumor volume Day 21 ([2]; 80mg/kg) | Relative tumor inhibition (%) Day 28 ([3]; 80mg/kg, QD×28) [%] | Relative tumor volume Day 28 ([3]; 80mg/kg, QD×28) | activity in inhibiting tumor growth in the SW620 tumor model compared with ZN-c3 ([2]; comparison in words) | Relative tumor inhibition (%) Day 28 ([3]; 20 mg/kg, QD × 28) [%] | Relative tumor volume Day 28 ([3]; 20 mg/kg, QD × 28) | Relative tumor inhibition (%) Day 28 ([3]; 40 mg/kg, QD × 28) [%] | Relative tumor volume Day 28 ([3]; 40 mg/kg, QD × 28) | activity in inhibiting tumor growth in the LoVo tumor model compared with ZN-c3 ([3]; comparison in words) |
| --- | --- | --- | --- | --- | --- | --- | --- | --- | --- | --- | --- | --- | --- | --- |
| – | C=CCn1c(=O)c2cnc(Nc3ccc(N4CCN(C)CC4)cc3)nc2n1-c1ccc2c(n1)C(O)(CC)CC2 (stereo not drawn) [ZN-c3, reference compound] | < 6.30 | 28.24 | 8.57 | 36.78 | 7.94 | 57.98 | 2.41 | – | – | – | – | – | – |
| strongly inhibited | Cc1cc(Nc2ncc3c(=O)n4n(c3n2)-c2cccc(n2)[C@](C)(O)CCC=CC4)ccc1OC1CCN(C)CC1 (stereo in doubt) [Compound IE, (R,Z)-12-hydroxy-12-methyl-2-((3-methyl-4-((1-methylpiperidin-4-yl)oxy)phenyl)amino)-7,10,11,12-tetrahydro-5H-13,17-(azeno)pyrimido[4',5':3,4]pyrazolo[1,2-a] [1,2]diazacyclotridecin-5-one] | 8.52 | 38.18 | 7.31 | 78.38 | 2.57 | 97.12 | 0.17 | higher activity than the reference molecule ZN-c3 | 60.90 | 2.28 | 89.12 | 0.63 | significantly better activity than ZN-c3 |
